Experimental data: US20190380985A1, “Composition Containing N-acetyldiaminobutyric Acid” (bitop AG, priority 2016, published 2019)

Assays:
[1] = tested on: HaCaT cells; experiment: IR protection test using LDH assay; format: cell-based, human; settings: 5 h preincubation, 44° C. for 30 min, 60 h at 37° C., FIG. 4; for liberation of LDH (protection against heat/IR): compared to untreated cells
Excerpt: Infrared (IR) radiation brings about an increase in skin temperature, which is associated with an increase in the number of free radicals and increased expression of heat shock inducing metalloproteases (MMP). A permanent exposure to IR radiation may result in an increase in cell death rate through apoptosis. In order to determine the potential of NADA and, for comparative purposes, ectoine on eukaryotic cells regarding the protection against heat and IR radiation, HaCaT cells (human keratinocyte cell line) were applied to 96 wells of a microtiter plate. After a uniform cell layer had formed, the test substances were applied to the medium and the cells were incubated for 5 hours at a temperature of 37° C. Following preincubation, the cells were exposed to a temperature of 44° C. for 30 min. The cells were then incubated at 37° C. for a further 60 hours.

[2] = tested on: Phenion skin model; experiment: UV protection test using LDH assay on full thickness skin model; format: cell-based; settings: 4 h incubation, compared with PBS, FIG. 3
Protocol: In order to further evaluate the UV, protection effect of NADA, a full thickness skin model of Henkel (Phenion skin, model) was used. This is based on a bovine collagen structure, which is morphologically equivalent to human skin and thus allows examinations to be easily carried out. The Phenion skin model was incubated with the test substances for 4 hours. These were applied directly to the top surface. Subsequently, the Phenion skin model was exposed to UV-B radiation for 2 hours. […] The skin model was then incubated for another 24 hours and the LDH (lactate dehydrogenase) value was determined, which is a measure of the degree of damage caused to the cells.

[3] = tested on: HaCaT cells; experiment: UV protection test via TEER assay; format: cell-based, human; settings: 100 mM, overnight preincubation, 45 min UV-B, 24 h later; FIG. 2
Excerpt: A characteristic feature of epithelial as well as endothelial cell layers is the formation of intercellular connections leading to a dense cell barrier separating the basolateral (abluminal) side from the apical (luminal) side. The cell layers form selectively permeable interfaces between different compartments, in this way controlling the diffusion in intercellular space as well as intracellular transport processes. This is ensured by tight junctions (paracellular barriers in the intercellular space). The integrity of these barriers is determined by the so-called TEER method (transepithelial/transendothelial electrical resistance). A defined DC voltage is applied to two electrodes on both sides of the cell layer. The flowing current is measured, which yields the respective resistance results according to Ohm's law.
HaCaT cells were used, a human keratinocyte cell line. These were applied to PET membranes (“ThinCerts®”). It was waited until the cells had formed a complete and intact monolayer. […]
In order to accomplish a closer investigation of the protective effect of membranes stabilized by N-acetyldiaminobutyric acid against UV radiation, keratinocytes were incubated overnight in a cell culture medium with PBS, NADA (50 mM and 100 mM) and other compounds. […] The cells were incubated for another 24 hours and the TEER values were determined. […]

[4] = tested on: SIRC cell line; experiment: Matsuo moisturizing assay (calcein AM viability after air-drying); format: cell-based, rabbit; settings: 25 mM; 15 min treatment, 45 min air-drying; FIG. 1
Protocol: The skin/mucosal moisturizing effect of N-acetyldiaminobutyric acid was investigated using a Matsuo moisturizing assay (Matsuo, Br J. Opthalmol. 85: 610-612). An SIRC cell line isolated from rabbit eyes was used for this purpose. For the experiments, 30,000 cells were placed in each well of a 96 well microtiter plate. After approx. 24 h a complete monolayer had formed in each case. The supernatant was then removed and 100 μl of the test substances diluted in PBS (phosphate buffered salt solution) were applied to the cells for 15 min. Then, the supernatant was removed again. At this stage, the cells were not washed with PBS. Under sterile conditions the cells were air-dried over a period of 45 min. Following this, the cells were washed three times with PBS. To determine cell viability calcein AM staining (calcein-acetoxymethyl ester) was used. Calcein is a fluorescent dye. After the transport of calcein AM into the living cell, the ester groups were cleaved by esterases of the cell resulting in the formation of calcein causing a strongly green fluorescent complex to be formed with calcium ions present in the cell. […] In turn, a high cell viability attests to good wetting properties of the test substances.
The result is shown in FIG. 1 in comparison to the effect of ectoine and hyaluronic acid. […]

[5] = tested on: HaCaT cells; experiment: ATP assay on aged keratinocytes (cell metabolism); format: cell-based, human; settings: 5 h incubation in PBS, compared to PBS only (0%), FIG. 7
Excerpt: HaCaT cells (a keratinocyte cell line) were placed on a 96-well microtiter plate and a cell culture was allowed to form for a period of at least one week until cell growth was stopped by contact inhibition. Following this, the cells were cultivated for another week to simulate the ageing process. The cell culture medium was changed over to PBS with the addition of NADA and reference substances such as glucosylglycerol, ectoine (28Extremoin) and Myramaze®, a commercially available anti-aging product. The cells were incubated for a period of 5 hours. Finally, an ATP assay was prepared, whereby a high ATP synthesis indicates a high degree of metabolism and thus attests to cell vitality. The results can be seen from FIG. 7.

[6] = tested on: TR146 cell line; experiment: Membrane stabilization, calcein AM assay, TR146; format: cell-based, human; settings: different concentrations, compared to PBS only; FIG. 5
Protocol: This is a buccal human cell line of oral mucosa cells. The cells were placed in a microtiter plate having 96 wells. As soon as confluence was reached, the cells were washed with PBS and provided with different concentrations of N-acetyldiaminobutyric acid. The negative control contained only PBS, the positive control cDPG (cyclic 2,3-diphosphoglycerate). Following incubation, the cells were again washed with PBS and incubated with 5 μM of calcein AM for a period of 45 min. The hydrolysis of calcein AM, which itself is non-fluorescent, by intracellular esterases produces calcein, a hydrophilic, highly fluorescent compound that is retained in the cytoplasm of the cells. Accordingly, high fluorescence is indicative of high cell viability.

[7] = tested on: LLC-PK1 cell line; experiment: Membrane stabilization, calcein AM assay, LLC-PK1; format: cell-based; settings: LLC-PK1 cells; FIG. 6
[8] = tested on: claudin-1; experiment: Claudin-1 specific ELISA after heat stress (tight junctions); format: cell-based, human; settings: 6 h pretreatment 10-175 mM, 44° C. 30 min, FIG. 8
Excerpt: The examination focused on the upregulation of claudins, membrane proteins as constituents of tights junctions, which close off the gaps between the cells of the epithelium so that a barrier is formed. This barrier controls the penetration of molecules via the epithelium. Specifically, the pore occluding claudin-1 was examined. An increased expression of claudin-1 leads to higher imperviousness of the epithelial membrane and increased transepithelial electrical resistance (TEER). The permeability is thus reduced.
The epithelial cell line (HaCaT) used for the experiment was cultivated in wells on a microtiter plate until a closed cell monolayer had developed. Subsequently, the cells were pretreated with NADA for 6 hours in the cell culture medium (10, 25, 50, 75, 100 and 175 mM). The cells were then suddenly exposed to a temperature of 44° C. for a period of 30 min. before being kept at 37° C. for another 24 and 48 hours respectively. The cells were harvested and the lysate was analyzed using a claudin-1 specific ELISA (enzyme-linked immunosorbent assay). The results can be seen from FIG. 8.

| Structure (SMILES) | liberation of LDH (protection against heat/IR) [1] | protection against IR radiation relative to ectoine [1] | LDH value after UV exposure (UV protection) ([2]; 2 h UV-B, 24 h later) | LDH value before UV exposure ([2]; before UV-B) | change of the TEER value after UV-B radiation [3] | viability of the cells and thus the humidification after drying of the cells [4] | ATP activity (cell metabolism) [5] | calcein fluorescence (stabilization of epithelial cells) [6] | calcein fluorescence (membrane stabilizing effect) [7] | expression of claudin-1 ([8]; then 24 hours at 37° C.) | expression of claudin-1 ([8]; then 48 hours at 37° C.) |
| --- | --- | --- | --- | --- | --- | --- | --- | --- | --- | --- | --- |
| CC1=NC(C(=O)O)CCN1 (stereo not drawn) [ectoine, 2-methyl-1,4,5,6-tetrahydropyrimidine-4-carboxylic acid, reference compound] | offer protection against intense IR radiation |  |  |  |  |  |  |  |  |  |  |
| CC(=O)NCCC(N)C(=O)O (stereo not drawn) [NADA, N-acetyldiaminobutyric acid] | offer protection against intense IR radiation | more effective than ectoine | shows UV protection properties | approximately the same for PBS and NADA | significant protection of the cell membrane | comparable results to ectoine | reactivation of aged keratinocytes | significant, concentration-dependent stabilization of the epithelial cells | membrane stabilizing effect | distinct increase in the expression of claudin-1 | distinct increase in the expression of claudin-1 |
